Tested on: cytokine mRNAs
Test: RT-qPCR array of mouse cytokines and chemokines in Hepa1-6 tumors
Format: in vivo
Description: Total RNA from Hepa1-6 tumors was analyzed using the RT2 Profiler PCR Array of Mouse Cytokines and Chemokines (Qiagen, catalog number 330231 PAMM-150ZA) according to the manufacturer's instructions.

[1] = array of 84 cytokines and chemokines

Structure (SMILES): Brc1ccc2c(-c3csc(-c4c[nH]c5c(Br)cccc45)n3)c[nH]c2c1 [Compound 32-134D, 4-(6-bromo-1H-indol-3-yl)-2-(7-bromo-1H-indol-3-yl)thiazole]
- Mstn mRNA Fold Up- or Down-Regulation Test Group/Control Group (Hepa1-6 tumors, vs vehicle): −4.85
- Mstn mRNA X axis (Log2(fold change)) (Hepa1-6 tumors, vs vehicle): −2.28
- Nodal mRNA Fold Change Test Group/Control Group (Hepa1-6 tumors, vs vehicle): 0.29
- Nodal mRNA Fold Up- or Down-Regulation Test Group/Control Group (Hepa1-6 tumors, vs vehicle): −3.43
- Nodal mRNA X axis (Log2(fold change)) (Hepa1-6 tumors, vs vehicle): −1.78
- Osm mRNA Fold Change Test Group/Control Group (Hepa1-6 tumors, vs vehicle): 0.38
- Osm mRNA Fold Up- or Down-Regulation Test Group/Control Group (Hepa1-6 tumors, vs vehicle): −2.65
- Osm mRNA X axis (Log2(fold change)) (Hepa1-6 tumors, vs vehicle): −1.40
- Pf4 mRNA Fold Change Test Group/Control Group (Hepa1-6 tumors, vs vehicle): 0.68
- Pf4 mRNA Fold Up- or Down-Regulation Test Group/Control Group (Hepa1-6 tumors, vs vehicle): −1.47
- Pf4 mRNA X axis (Log2(fold change)) (Hepa1-6 tumors, vs vehicle): −0.56
- Ppbp mRNA Fold Change Test Group/Control Group (Hepa1-6 tumors, vs vehicle): 0.64
- Ppbp mRNA Fold Up- or Down-Regulation Test Group/Control Group (Hepa1-6 tumors, vs vehicle): −1.56
- Ppbp mRNA X axis (Log2(fold change)) (Hepa1-6 tumors, vs vehicle): −0.65
- Spp1 mRNA Fold Change Test Group/Control Group (Hepa1-6 tumors, vs vehicle): 1.71
- Spp1 mRNA Fold Up- or Down-Regulation Test Group/Control Group (Hepa1-6 tumors, vs vehicle): 1.71
- Spp1 mRNA X axis (Log2(fold change)) (Hepa1-6 tumors, vs vehicle): 0.77
- Tgfb2 mRNA Fold Change Test Group/Control Group (Hepa1-6 tumors, vs vehicle): 0.74
- Tgfb2 mRNA Fold Up- or Down-Regulation Test Group/Control Group (Hepa1-6 tumors, vs vehicle): −1.36
- Tgfb2 mRNA X axis (Log2(fold change)) (Hepa1-6 tumors, vs vehicle): −0.44
- Thpo mRNA Fold Change Test Group/Control Group (Hepa1-6 tumors, vs vehicle): 0.55
- Thpo mRNA Fold Up- or Down-Regulation Test Group/Control Group (Hepa1-6 tumors, vs vehicle): −1.82
- Thpo mRNA X axis (Log2(fold change)) (Hepa1-6 tumors, vs vehicle): −0.87
- Tnf mRNA Fold Change Test Group/Control Group (Hepa1-6 tumors, vs vehicle): 0.25
- Tnf mRNA Fold Up- or Down-Regulation Test Group/Control Group (Hepa1-6 tumors, vs vehicle): −4.00
- Tnf mRNA X axis (Log2(fold change)) (Hepa1-6 tumors, vs vehicle): −2.00
- Tnfrsf11b mRNA Fold Change Test Group/Control Group (Hepa1-6 tumors, vs vehicle): 0.25
- Tnfrsf11b mRNA Fold Up- or Down-Regulation Test Group/Control Group (Hepa1-6 tumors, vs vehicle): −4.07
- Tnfrsf11b mRNA X axis (Log2(fold change)) (Hepa1-6 tumors, vs vehicle): −2.02
- Tnfsf10 mRNA Fold Change Test Group/Control Group (Hepa1-6 tumors, vs vehicle): 1.02
- Tnfsf10 mRNA Fold Up- or Down-Regulation Test Group/Control Group (Hepa1-6 tumors, vs vehicle): 1.02
- Tnfsf10 mRNA X axis (Log2(fold change)) (Hepa1-6 tumors, vs vehicle): 0.03
- Tnfsf11 mRNA Fold Change Test Group/Control Group (Hepa1-6 tumors, vs vehicle): 0.38
- Tnfsf11 mRNA Fold Up- or Down-Regulation Test Group/Control Group (Hepa1-6 tumors, vs vehicle): −2.61
- Tnfsf11 mRNA X axis (Log2(fold change)) (Hepa1-6 tumors, vs vehicle): −1.39
- Tnfsf13b mRNA Fold Change Test Group/Control Group (Hepa1-6 tumors, vs vehicle): 0.88
- Tnfsf13b mRNA Fold Up- or Down-Regulation Test Group/Control Group (Hepa1-6 tumors, vs vehicle): −1.13
- Tnfsf13b mRNA X axis (Log2(fold change)) (Hepa1-6 tumors, vs vehicle): −0.18
- Vegfa mRNA Fold Change Test Group/Control Group (Hepa1-6 tumors, vs vehicle): 0.40
- Vegfa mRNA Fold Up- or Down-Regulation Test Group/Control Group (Hepa1-6 tumors, vs vehicle): −2.52
- Vegfa mRNA X axis (Log2(fold change)) (Hepa1-6 tumors, vs vehicle): −1.33
- Xcl1 mRNA Fold Change Test Group/Control Group (Hepa1-6 tumors, vs vehicle): 1.47
- Xcl1 mRNA Fold Up- or Down-Regulation Test Group/Control Group (Hepa1-6 tumors, vs vehicle): 1.47
- Xcl1 mRNA X axis (Log2(fold change)) (Hepa1-6 tumors, vs vehicle): 0.56
- lfna2 mRNA Fold Change Test Group/Control Group (Hepa1-6 tumors, vs vehicle): 0.26
- lfna2 mRNA Fold Up- or Down-Regulation Test Group/Control Group (Hepa1-6 tumors, vs vehicle): −3.85
- lfna2 mRNA X axis (Log2(fold change)) (Hepa1-6 tumors, vs vehicle): −1.95
- lfng mRNA Fold Change Test Group/Control Group (Hepa1-6 tumors, vs vehicle): 1.63
- lfng mRNA Fold Up- or Down-Regulation Test Group/Control Group (Hepa1-6 tumors, vs vehicle): 1.63
- lfng mRNA X axis (Log2(fold change)) (Hepa1-6 tumors, vs vehicle): 0.70
- ll1a mRNA Fold Change Test Group/Control Group (Hepa1-6 tumors, vs vehicle): 0.68
- ll1a mRNA Fold Up- or Down-Regulation Test Group/Control Group (Hepa1-6 tumors, vs vehicle): −1.47
- ll1a mRNA X axis (Log2(fold change)) (Hepa1-6 tumors, vs vehicle): −0.56
- ll1b mRNA Fold Change Test Group/Control Group (Hepa1-6 tumors, vs vehicle): 0.34
- ll1b mRNA Fold Up- or Down-Regulation Test Group/Control Group (Hepa1-6 tumors, vs vehicle): −2.92
- ll1b mRNA X axis (Log2(fold change)) (Hepa1-6 tumors, vs vehicle): −1.55
- ll1rn mRNA Fold Change Test Group/Control Group (Hepa1-6 tumors, vs vehicle): 0.68
- ll1rn mRNA Fold Up- or Down-Regulation Test Group/Control Group (Hepa1-6 tumors, vs vehicle): −1.47
- ll1rn mRNA X axis (Log2(fold change)) (Hepa1-6 tumors, vs vehicle): −0.56
- ll2 mRNA Fold Change Test Group/Control Group (Hepa1-6 tumors, vs vehicle): 0.30
- ll2 mRNA Fold Up- or Down-Regulation Test Group/Control Group (Hepa1-6 tumors, vs vehicle): −3.37
- ll2 mRNA X axis (Log2(fold change)) (Hepa1-6 tumors, vs vehicle): −1.75
- ll3 mRNA Fold Change Test Group/Control Group (Hepa1-6 tumors, vs vehicle): 0.36
- ll3 mRNA Fold Up- or Down-Regulation Test Group/Control Group (Hepa1-6 tumors, vs vehicle): −2.77
- ll3 mRNA X axis (Log2(fold change)) (Hepa1-6 tumors, vs vehicle): −1.47
- ll4 mRNA Fold Change Test Group/Control Group (Hepa1-6 tumors, vs vehicle): 0.34
- ll4 mRNA Fold Up- or Down-Regulation Test Group/Control Group (Hepa1-6 tumors, vs vehicle): −2.91
- ll4 mRNA X axis (Log2(fold change)) (Hepa1-6 tumors, vs vehicle): −1.54
- ll5 mRNA Fold Change Test Group/Control Group (Hepa1-6 tumors, vs vehicle): 0.42
- ll5 mRNA Fold Up- or Down-Regulation Test Group/Control Group (Hepa1-6 tumors, vs vehicle): −2.39
- ll5 mRNA X axis (Log2(fold change)) (Hepa1-6 tumors, vs vehicle): −1.26
- ll6 mRNA Fold Change Test Group/Control Group (Hepa1-6 tumors, vs vehicle): 0.34
- ll6 mRNA Fold Up- or Down-Regulation Test Group/Control Group (Hepa1-6 tumors, vs vehicle): −2.95
- ll6 mRNA X axis (Log2(fold change)) (Hepa1-6 tumors, vs vehicle): −1.56
- ll7 mRNA Fold Change Test Group/Control Group (Hepa1-6 tumors, vs vehicle): 0.97
- ll7 mRNA Fold Up- or Down-Regulation Test Group/Control Group (Hepa1-6 tumors, vs vehicle): −1.04
- ll7 mRNA X axis (Log2(fold change)) (Hepa1-6 tumors, vs vehicle): −0.05
- ll9 mRNA Fold Change Test Group/Control Group (Hepa1-6 tumors, vs vehicle): 0.27
- ll9 mRNA Fold Up- or Down-Regulation Test Group/Control Group (Hepa1-6 tumors, vs vehicle): −3.69
- ll9 mRNA X axis (Log2(fold change)) (Hepa1-6 tumors, vs vehicle): −1.88
- ll10 mRNA Fold Change Test Group/Control Group (Hepa1-6 tumors, vs vehicle): 0.23
- ll10 mRNA Fold Up- or Down-Regulation Test Group/Control Group (Hepa1-6 tumors, vs vehicle): −4.42
- ll10 mRNA X axis (Log2(fold change)) (Hepa1-6 tumors, vs vehicle): −2.14
- ll11 mRNA Fold Change Test Group/Control Group (Hepa1-6 tumors, vs vehicle): 0.24
- ll11 mRNA Fold Up- or Down-Regulation Test Group/Control Group (Hepa1-6 tumors, vs vehicle): −4.12
- ll11 mRNA X axis (Log2(fold change)) (Hepa1-6 tumors, vs vehicle): −2.04
- ll12a mRNA Fold Change Test Group/Control Group (Hepa1-6 tumors, vs vehicle): 0.48
- ll12a mRNA Fold Up- or Down-Regulation Test Group/Control Group (Hepa1-6 tumors, vs vehicle): −2.07
- ll12a mRNA X axis (Log2(fold change)) (Hepa1-6 tumors, vs vehicle): −1.05
- ll12b mRNA Fold Change Test Group/Control Group (Hepa1-6 tumors, vs vehicle): 0.29
- ll12b mRNA Fold Up- or Down-Regulation Test Group/Control Group (Hepa1-6 tumors, vs vehicle): −3.51
- ll12b mRNA X axis (Log2(fold change)) (Hepa1-6 tumors, vs vehicle): −1.81
- ll13 mRNA Fold Change Test Group/Control Group (Hepa1-6 tumors, vs vehicle): 0.32
- ll13 mRNA Fold Up- or Down-Regulation Test Group/Control Group (Hepa1-6 tumors, vs vehicle): −3.14
- ll13 mRNA X axis (Log2(fold change)) (Hepa1-6 tumors, vs vehicle): −1.65
- ll15 mRNA Fold Change Test Group/Control Group (Hepa1-6 tumors, vs vehicle): 0.84
- ll15 mRNA Fold Up- or Down-Regulation Test Group/Control Group (Hepa1-6 tumors, vs vehicle): 1.19
- ll15 mRNA X axis (Log2(fold change)) (Hepa1-6 tumors, vs vehicle): −0.25
- ll16 mRNA Fold Change Test Group/Control Group (Hepa1-6 tumors, vs vehicle): 0.53
- ll16 mRNA Fold Up- or Down-Regulation Test Group/Control Group (Hepa1-6 tumors, vs vehicle): −1.90
- ll16 mRNA X axis (Log2(fold change)) (Hepa1-6 tumors, vs vehicle): −0.93
- ll17a mRNA Fold Change Test Group/Control Group (Hepa1-6 tumors, vs vehicle): 0.33
- ll17a mRNA Fold Up- or Down-Regulation Test Group/Control Group (Hepa1-6 tumors, vs vehicle): −3.00
- ll17a mRNA X axis (Log2(fold change)) (Hepa1-6 tumors, vs vehicle): −1.59
- ll17f mRNA Fold Change Test Group/Control Group (Hepa1-6 tumors, vs vehicle): 0.75
- ll17f mRNA Fold Up- or Down-Regulation Test Group/Control Group (Hepa1-6 tumors, vs vehicle): −1.33
- ll17f mRNA X axis (Log2(fold change)) (Hepa1-6 tumors, vs vehicle): −0.41
- ll18 mRNA Fold Change Test Group/Control Group (Hepa1-6 tumors, vs vehicle): 0.89
- ll18 mRNA Fold Up- or Down-Regulation Test Group/Control Group (Hepa1-6 tumors, vs vehicle): −1.13
- ll18 mRNA X axis (Log2(fold change)) (Hepa1-6 tumors, vs vehicle): −0.17
- ll21 mRNA Fold Change Test Group/Control Group (Hepa1-6 tumors, vs vehicle): 0.29
- ll21 mRNA Fold Up- or Down-Regulation Test Group/Control Group (Hepa1-6 tumors, vs vehicle): −3.46
- ll21 mRNA X axis (Log2(fold change)) (Hepa1-6 tumors, vs vehicle): −1.79
- ll22 mRNA Fold Change Test Group/Control Group (Hepa1-6 tumors, vs vehicle): 0.37
- ll22 mRNA Fold Up- or Down-Regulation Test Group/Control Group (Hepa1-6 tumors, vs vehicle): −2.67
- ll22 mRNA X axis (Log2(fold change)) (Hepa1-6 tumors, vs vehicle): −1.42
- ll23a mRNA Fold Change Test Group/Control Group (Hepa1-6 tumors, vs vehicle): 0.44
- ll23a mRNA Fold Up- or Down-Regulation Test Group/Control Group (Hepa1-6 tumors, vs vehicle): −2.25
- ll23a mRNA X axis (Log2(fold change)) (Hepa1-6 tumors, vs vehicle): −1.17
- ll24 mRNA Fold Change Test Group/Control Group (Hepa1-6 tumors, vs vehicle): 0.43
- ll24 mRNA Fold Up- or Down-Regulation Test Group/Control Group (Hepa1-6 tumors, vs vehicle): −2.34
- ll24 mRNA X axis (Log2(fold change)) (Hepa1-6 tumors, vs vehicle): −1.23
- ll27 mRNA Fold Change Test Group/Control Group (Hepa1-6 tumors, vs vehicle): 0.46
- ll27 mRNA Fold Up- or Down-Regulation Test Group/Control Group (Hepa1-6 tumors, vs vehicle): −2.19
- ll27 mRNA X axis (Log2(fold change)) (Hepa1-6 tumors, vs vehicle): −1.13
- number of mRNAs with decreased expression [1]: 40 mRNAs
- number of mRNAs with increased expression [1]: 5 mRNAs
